Source: the supplement of paper PMC10627819

Assays:
B. subtilis 168 [1] = assay: fitness (endpoint OD595 vs no drug) (fraction); higher = more growth
Summary of the method: (§1)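 Bacterial growth was followed in 384-well plates seeded at OD595 0.01, with 30 µl per well, or 55 µl for S. pneumoniae, in TSB, LB Lennox or CY at 37 °C. OD595 was read every 30 min for 14 h, and each reading had the first reading subtracted as background. Fitness is the background-corrected optical density at entry into stationary phase divided by the robust mean of the no-drug control wells. This ratio is capped at 1.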

S. aureus Newman [2] = assay: as above
Summary of the method: as §1

S. pneumoniae D39V [3] = assay: as above
Summary of the method: as §1

B. subtilis 168 [4] = assay: Bliss interaction score (quartile over a dose matrix) (fitness difference); higher = more antagonism (negative = synergy)
Summary of the method: (§2)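 Each plate was normalised to the robust mean of its own no-drug wells, using OD595 at entry into stationary phase, with values capped at 1. This normalised growth is the fitness value. The Bliss score is the difference between observed and product-expected fitness, with single-drug fitness inferred from the combination data and quartiles taken over technical, biological and donor/recipient replicates.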

S. aureus DSM 20231 = assay: as above
Summary of the method: as §2

S. aureus Newman [5] = assay: as above
Summary of the method: as §2

S. pneumoniae D39V [6] = assay: as above
Summary of the method: as §2
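For Bliss interaction score (quartile over a dose matrix) in this document: first quartile when negative (synergy) and third quartile when positive (antagonism).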

COc1c(N2C[C@@H]3CCCN[C@@H]3C2)c(F)cc2c(=O)c(C(=O)O)cn(C3CC3)c12 [Moxifloxacin] + CN[C@@H]1[C@H](O[C@H]2[C@H](O[C@H]3[C@H](O)[C@@H](O)[C@H](N=C(N)N)[C@@H](O)[C@@H]3N=C(N)N)O[C@@H](C)[C@]2(O)C=O)O[C@@H](CO)[C@H](O)[C@H]1O [Streptomycin]
fitness
Conditions | partner 1 µg/mL | partner 2 µg/mL | partner 4 µg/mL | partner 8 µg/mL
B. subtilis 168 [1], first compound 0.0312 µg/mL | – | 0.0439 | 0.0414 | 0.0382
B. subtilis 168 [1], first compound 0.0625 µg/mL | – | 0.0428 | 0.0341 | 0.0226
B. subtilis 168 [1], first compound 0.125 µg/mL | – | 0.041 | 0.0379 | 0.0381
B. subtilis 168 [1], first compound 2 µg/mL | – | 0.0315 | 0.0296 | 0.0146
B. subtilis 168 [1], first compound 4 µg/mL | – | 0.0231 | 0.0178 | 0.0188
B. subtilis 168 [1], first compound 8 µg/mL | – | 0.013 | 0.0133 | 0.0206
S. aureus Newman [2], first compound 0.0075 µg/mL | 0.834 | 0.733 | – | –
S. aureus Newman [2], first compound 0.015 µg/mL | – | 0.606 | – | –
S. aureus Newman [2], first compound 0.03 µg/mL | – | 0.201 | 0.0711 | –
S. pneumoniae D39V [3], first compound 0.0037 µg/mL | – | – | 0.891 | 0.785
S. pneumoniae D39V [3], first compound 0.005 µg/mL | – | 0.922 | 0.944 | 0.892
S. pneumoniae D39V [3], first compound 0.0075 µg/mL | – | – | 0.904 | 0.837
S. pneumoniae D39V [3], first compound 0.01 µg/mL | – | 0.94 | 0.958 | 0.925
S. pneumoniae D39V [3], first compound 0.015 µg/mL | – | – | 0.882 | 0.82
S. pneumoniae D39V [3], first compound 0.02 µg/mL | – | 0.881 | 0.9 | 0.861

fitness, S. pneumoniae D39V [3], one replicate
Conditions | first compound 0.0037 µg/mL | first compound 0.0075 µg/mL | first compound 0.015 µg/mL
partner 2 µg/mL | 0.903 | 0.908 | 0.919
partner 16 µg/mL | 0.699 | 0.743 | 0.685

Conditions | Bliss interaction score
B. subtilis 168 [4] | 0.0188
S. aureus DSM 20231 | 0.0517
S. aureus Newman [5] | -0.031
S. pneumoniae D39V [6] | 0.0604

COc1c(N2C[C@@H]3CCCN[C@@H]3C2)c(F)cc2c(=O)c(C(=O)O)cn(C3CC3)c12 [Moxifloxacin] + CN(C)c1cc(NC(=O)CNC(C)(C)C)c(O)c2c1C[C@H]1C[C@H]3[C@H](N(C)C)C(O)=C(C(N)=O)C(=O)[C@@]3(O)C(O)=C1C2=O [Tigecycline]
fitness
Conditions | partner 0.039 µg/mL | partner 0.078 µg/mL | partner 0.156 µg/mL | partner 0.65 µg/mL | partner 1.3 µg/mL | partner 2.6 µg/mL
B. subtilis 168 [1], first compound 0.0312 µg/mL | 0.0412 | 0.0391 | 0.0455 | – | – | –
B. subtilis 168 [1], first compound 0.0625 µg/mL | 0.0348 | 0.0627 | 0.0465 | – | – | –
B. subtilis 168 [1], first compound 0.125 µg/mL | 0.0497 | 0.0447 | 0.0454 | – | – | –
B. subtilis 168 [1], first compound 2 µg/mL | 0.0218 | 0.034 | 0.0374 | – | – | –
B. subtilis 168 [1], first compound 4 µg/mL | 0.0264 | 0.0295 | 0.0361 | – | – | –
B. subtilis 168 [1], first compound 8 µg/mL | 0.008 | 0.0149 | 0.0156 | – | – | –
S. aureus Newman [2], first compound 0.0075 µg/mL | 0.764 | 0.761 | 0.773 | – | – | –
S. aureus Newman [2], first compound 0.03 µg/mL | 0.0791 | 0.0794 | 0.113 | – | – | –
S. pneumoniae D39V [3], first compound 0.0037 µg/mL | – | – | – | 0.945 | 0.955 | 0.852
S. pneumoniae D39V [3], first compound 0.005 µg/mL | – | – | – | 0.931 | 0.929 | 0.909
S. pneumoniae D39V [3], first compound 0.0075 µg/mL | – | – | – | 0.937 | 0.94 | 0.905
S. pneumoniae D39V [3], first compound 0.01 µg/mL | – | – | – | 0.965 | 0.946 | 0.932
S. pneumoniae D39V [3], first compound 0.015 µg/mL | – | – | – | 0.932 | 0.929 | 0.901
S. pneumoniae D39V [3], first compound 0.02 µg/mL | – | – | – | 0.835 | 0.94 | 0.971

fitness, B. subtilis 168 [1], one replicate
Conditions | first compound 0.0312 µg/mL | first compound 0.0625 µg/mL | first compound 0.125 µg/mL
partner 0.125 µg/mL | 0.402 | 0.0347 | 0.0119
partner 0.25 µg/mL | 0.325 | 0.0048 | 0.0005
partner 0.5 µg/mL | 0.372 | 0.0104 | 0.0203

Conditions | Bliss interaction score
B. subtilis 168 [4] | -0.0275
S. aureus DSM 20231 | -0.0652
S. aureus Newman [5] | -0.0557
S. pneumoniae D39V [6] | 0.0824
